Measurements published in EP4778921A1, “SALT FORM AND CRYSTAL FORM OF NITROGEN-CONTAINING HETEROCYCLIC DERIVATIVE INHIBITOR, AND PREPARATION METHOD THEREFOR AND USE THEREOF” (Shanghai Hansoh Biomedical Co., Ltd., priority 2023, dated 2025).

Legend:
Ba/F3 EGFR Del19/C797S = experiment: Cell proliferation inhibition experiment (Cell Titer-Glo); format: cell-based; conditions: Mus musculus, 72 hours, read-out: Ba/F3 EGFR Dell9/C797S IC50
Description: (§1) Experimental objective: The objective of this test example is to test the inhibitory activity of compounds on the proliferation of different EGFR C797S drug-resistant mutant cell lines Ba/F3 EGFR Del19/T790M/C797S, Ba/F3 EGFR L858R/T790M/C797S, and Ba/F3 EGFR Del19/C797S. Experimental instruments: Centrifuge (Eppendorf 5810R); Microplate reader (BioTek Synergy H1) Pipette (Eppendorf or Rainin); Carbon dioxide incubator (Thermo 311) Cell counter (Life Countess II) Experimental reagents and consumables: • Ba/F3 EGFR Del19/T790M/C797S cells were purchased from KYinno Biotechnology Co., Ltd.; • Ba/F3 EGFR Del19/C797S cells were purchased from CoBioer Biosciences Co., Ltd.; • Ba/F3 EGFR L858R/T790M/C797S cells were purchased from CoBioer Biosciences Co., Ltd.; • Cell Titer-Glo was purchased from Promega, with a catalogue number of G7573; • RPMI 1640 was purchased from Gibco, with a catalogue number of 22400089; • FBS was purchased from Gibco, with a catalogue number of 10091148; • cell culture plates were purchased from Corning, with a catalogue number of 3610. Experimental methods: The inhibitory activity of the compound on the proliferation of different EGFR C797S drug-resistant mutant cell lines was detected using the Cell Titer-Glo method. The different cell lines were cultured in RPMI 1640 complete culture medium containing 10% FBS under conditions of 37°C and 5% CO2, the cells were collected by centrifugation when growing to a certain density, and adjusted to appropriate cell density after counting, the cells were spread on a white 96-well plate at 90 µL/well, and cultured in a 37°C, 5% CO2 incubator overnight, prepared compound solutions at different concentrations were added at 10 µL/well, corresponding solvent controls were set, and all wells were cultured in a 37°C, 5% CO2 incubator for 72 hours, 50 µL of CellTiter-Glo solution was added to each well, shook and mixed evenly, and incubated in the dark for 10 minutes, and a BioTek Synergy H1 microplate reader was used for reading. Experimental data processing method: The luminescence signal value was used to calculate the inhibition rate. Graphpad Prism software was used to fit the concentration and inhibition rate to a nonlinear regression curve, so as to obtain the IC50 value, as shown in the Table below for details.

[1] = test system: Ba/F3 EGFR Del19/T790M/C797S; experiment: as above; format: cell-based; conditions: Mus musculus, 72 hours, read-out: Ba/F3 EGFR Del19_T790M_C797S IC50
Description: as §1

[2] = test system: Ba/F3 EGFR L858R/T790M/C797S; experiment: as above; format: cell-based; conditions: Mus musculus, 72 hours, read-out: Ba/F3 EGFR L858R_T790M_C797S IC50
Description: as §1

[3] = Rat pharmacokinetic evaluation test; format: in vivo; conditions: male, po, SD rats, plasma, p.o. 5 mg/kg
Description: 1. Study objective: SD rats were used as test animals to study the pharmacokinetic behaviour of the compounds of the present invention in rats (plasma) after oral administration at a dose of 5 mg/kg. 2. Experimental scheme: 2.1 Experimental drugs: The example compounds of the present invention, made in house. 2.2 Experimental animals: 3 SD rats/group, male, from Shanghai Jiesijie Experimental Animal Co., Ltd., animal production license number (SCXK (Shanghai) 2013-0006 N0.311620400001794). 2.3 Preparation formulation: • Formulation of drug for oral administration: 20% solutol HS15 in 0.5% MC (methylcellulose) • 20 g of a Solutol HS15 solid and 0.5 g of a MC solid powder were weighed and dissolved in 80 mL of purified water, and the mixture was vortexed, mixed until uniform, and subjected to ultrasound treatment to obtain a clear solution of 20% solutol HS15 in 0.5% MC. The example compound was weighed into a 20 mL glass vial, the solution was added thereto and the mixture was subjected to ultrasound treatment for 10 minutes to obtain a clear solution at a concentration of 0.5 mg/mL. 2.4 Administration: 3 male SD rats were administered p.o. respectively after the rats were fasted overnight; and the p.o. dose was 5 mg/kg and the administration volume was 10 mL/kg. 2.5 Sample collection: Blood collection: Before and after administration to rats, 0.2 mL of blood was collected from the jugular vein at 0.25, 0.5, 1, 2, 4, 6, 8 and 24 h, and placed in an EDTA-K2 anticoagulation tube, which was centrifuged at 6000 rpm at 4°C for 6 min to separate plasma which was stored at -80°C; and the animals were fed 4 h after administration. 2.6 Sample treatment: • 1) Acetonitrile (160 µL) was added to plasma sample (40 µL) for precipitation, and the mixture was centrifuged at 3500 × g for 5-20 min. • 2) The treated supernatant solution was taken and subjected to LC/MS/MS to analyse the concentrations of the test compound. LC/MS/MS analysis instrument: AB Sciex API 4000 Qtrap. 2.7 Liquid phase analysis: • Liquid phase conditions: Shimadzu LC-20AD pump • Chromatographic column: Agilent ZORBAX XDB-C18 (50 × 2.1 mm, 3.5 µm), mobile phase: solution A: 0.1% formic acid in water, solution B: acetonitrile • Flow rate: 0.4 mL/min • Elution time: 0-4.0 min, with eluents as follows:
3. Experimental results and analysis: The main pharmacokinetic parameters were calculated using WinNonlin 6.1.

[4] = Hygroscopicity experiment (crystal forms of salts and crystal form A of free base); format: physicochemical
Excerpt: • 2.1 Experimental objective: The hygroscopicity of different crystal forms of salts of the compound was investigated under various relative humidity conditions to provide a basis for screening and storage of the crystal forms of salts of the compound. • 2.2 Experimental scheme: The crystal forms of salts of the compound were placed in saturated water vapor at different relative humidities to reach a dynamic equilibrium between the compound and the water vapor.
3.1 Experimental objective: The hygroscopicity of crystal form A of free base of the compound was investigated under various relative humidity conditions to provide a basis for screening and storage of the crystal forms of the compound.
3.2 Experimental scheme: The crystal form A of free base of the compound was placed in saturated water vapor at different relative humidities to reach a dynamic equilibrium between the compound and the water vapor. The percentage weight gain of the compound due to moisture absorption was calculated after the equilibrium.

[5] = Solubility experiments in different media, crystal forms of salts; format: physicochemical; parameters: thermodynamic solubility FaSSIF / thermodynamic solubility FaSSGF / thermodynamic solubility FeSSIF: unit not given here; conditions: about 2 mg suspended for 24 hours, 37°C, HPLC, external standard method
Excerpt: 4.1 Experimental objective: The solubility of the crystal form A of phosphate, crystal form A of hydrochloride, crystal form A of sulphate, crystal form A of citrate, crystal form A of oxalate, crystal form A of maleate and crystal form A of salicylate in media such as artificial simulated gastric fluid (FaSSGF), fasted-state artificial simulated intestinal fluid (FaSSIF), and fed-state artificial simulated intestinal fluid (FeSSIF) was compared to provide a basis for the evaluation of the potential of the crystal forms of salts being manufactured as a drug. […]

[6] = Solid stability experiment of crystal form A of phosphate (5, 10, 20 and 30 days); format: physicochemical; conditions: 60°C (GW, sealed), 50°C/75% RH (JS, unsealed), room temperature/92.5% RH (GS, unsealed)
Description: • 5.1 Experimental objective: To investigate and compare the stability of the crystal form A of phosphate under the three conditions of a high temperature of 60°C (GW, sealed), 50°C/75% RH (JS, unsealed), and room temperature/92.5% RH (GS, unsealed) and provide a basis for the screening of the crystal forms of salts and the storage of the salts of the compound. • 5.2 Experimental scheme: About 2 mg of crystal form A of phosphate was weighed into 2 mL dry and clean glass vials, respectively. The vials were respectively placed under the conditions of 60°C (GW, sealed), 50°C/75% RH (JS, unsealed), and room temperature/92.5% RH (GS, unsealed) for 5, 10, 20 and 30 days. […] Therefore, the crystal form can well meet the requirements of subsequent long-term storage and formulation processes.

SMILES	IC50 (Ba/F3 EGFR Del19/C797S) [nM]	IC50 [1] [nM]	IC50 [2] [nM]	AUC(0-t) [3] [ng·h/mL]	Cmax [3] [ng/mL]	half-life [3] [h]	weight gain after moisture absorption ([4]; RH 80%) [%]	hygroscopicity ([4]; RH 80%, result in words)	crystal form transformation (XRPD pattern) ([4]; after 1 cycle of moisture absorption and desorption, 0-95% relative humidity)	thermodynamic solubility FaSSGF ([5]; FaSSGF (artificial simulated gastric fluid))	thermodynamic solubility FaSSIF ([5]; FaSSIF (fasted-state artificial simulated intestinal fluid))	solubility thermodynamic at 24 h ([5]; thermodynamic from solid, FeSSIF (fed-state artificial simulated intestinal fluid)) [µg/mL]	stability (impurity increase) [6]
CC(C)c1c(F)cc(N2C[C@H](CS(C)(=O)=O)[C@H]2C)c2cnc(Nc3ccnc(-c4cn(C)nc4Cl)n3)cc12 [Example 1, N-(2-(3-chloro-1-methyl-1H-pyrazol-4-yl)pyrimidin-4-yl)-6-fluoro-5-isopropyl-8-((2R,3S)-2-methyl-3-((methanesulphonyl)methyl)azetidin-1-yl)isoquinolin-3-amine]	11	7.1	14	2100	178	2.3	–	–	–	–	–	–	–
CC(C)c1c(F)cc(N2C[C@H](N(C)S(C)(=O)=O)[C@H]2C)c2cnc(Nc3ccnc(-c4cn(C)nc4Cl)n3)cc12 [Example 2, N-((2R,3S)-1-(3-((2-(3-chloro-1-methyl-1H-pyrazol-4-yl)pyrimidin-4-yl)amino)-6-fluoro-5-isopropylisoquinolin-8-yl)-2-methylazetidin-3-yl)-N-methylmethanesulphonamide]	6.2	4.5	15	1770	142	3.9	–	–	–	–	–	–	–
Cc1nn(C)cc1-c1nccc(Nc2cc3c(C(C)C)c(F)cc(N4C[C@H](N(C)S(C)(=O)=O)[C@H]4C)c3cn2)n1 [Example 5, N-((2R,3S)-1-(3-((2-(1,3-dimethyl-1H-pyrazol-4-yl)pyrimidin-4-yl)amino)-6-fluoro-5-isopropylisoquinolin-8-yl)-2-methylazetidin-3-yl)-N-methylmethanesulphonamide]	7.8	4.5	–	2000	157	3.9	–	–	–	–	–	–	–
CC(C)c1c(F)cc(N2C[C@H](NS(C)(=O)=O)[C@H]2C)c2cnc(Nc3ccnc(-c4cn(C)nc4Cl)n3)cc12 [Example 14, N-((2R,3S)-1-(3-((2-(3-chloro-1-methyl-1H-pyrazol-4-yl)pyrimidin-4-yl)amino)-6-fluoro-5-isopropylisoquinolin-8-yl)-2-methylazetidin-3-yl)methanesulphonamide]	2.6	–	8.8	–	–	–	–	–	–	–	–	–	–
CC(C)c1c(F)cc(N2C[C@H](N(C)S(C)(=O)=O)[C@H]2C)c2cnc(Nc3ccnc(-c4cn(C)nc4Cl)n3)cc12 [crystal form A of phosphate, N-((2R,3S)-1-(3-((2-(3-chloro-1-methyl-1H-pyrazol-4-yl)pyrimidin-4-yl)amino)-6-fluoro-5-isopropylisoquinolin-8-yl)-2-methylazetidin-3-yl)-N-methylmethanesulphonamide]	–	–	–	–	–	–	0.533	weak hygroscopicity	no crystal form transformation occurred	0.010	0.203	1200	relatively stable
